Reference: patent US20070087326A1, “Method of measuring the biological activity of an urotensin II receptor” (priority 2005, published 2007)
Bridge positions count the residues as written; N and C are the ends. Square brackets hold non-standard residues; d marks the D form. Peptide text beside a SMILES is read from it. Pen = CC(C)(S)[C@H](N)C(=O)O; Orn = NCCC[C@H](N)C(=O)O

Columns and labels:
[1] = target: T1, recombinant rat U-II receptors (CHOrUII cells) (Rattus norvegicus, UniProt P49684); test: CDS (CellKey) electrical impedance assay in CHOrUII cells; assay type: cell-based; details: FIG. 3C
T1 construct: expressed in transfected cells; host or cells: CHO-K1 (ATCC CRL-9618), G418 selection
T1 sequence (P49684 1-386): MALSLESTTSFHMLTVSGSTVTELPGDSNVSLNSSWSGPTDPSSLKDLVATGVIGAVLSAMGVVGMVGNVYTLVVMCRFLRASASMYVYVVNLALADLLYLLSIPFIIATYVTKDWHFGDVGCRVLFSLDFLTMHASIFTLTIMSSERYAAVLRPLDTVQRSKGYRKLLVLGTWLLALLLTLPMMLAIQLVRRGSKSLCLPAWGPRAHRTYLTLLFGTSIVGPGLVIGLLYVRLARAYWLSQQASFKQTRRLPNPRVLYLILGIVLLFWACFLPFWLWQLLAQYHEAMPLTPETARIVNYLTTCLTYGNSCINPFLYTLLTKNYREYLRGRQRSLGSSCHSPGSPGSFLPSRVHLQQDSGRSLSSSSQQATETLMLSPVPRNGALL
Description: The CHOrUII cells were under G418 selection. […] Urantide (PUT-3639-P1) was purchased from Peptide International (Louisville, Ky.). Cells of RMS13 and 6D9 were cultured in RPMI medium (ATCC 30-2001) containing 10% FBS (Cat. No. SH30070.03, Hyclone, Logan, Utah). CHOrUII cells were grown in DMEMF12 (Gibco #11330-032) medium containing G418 at 1 mg/ml concentration. Cells were plated at 60 or 70K/well in a medium indicated above overnight. The medium was removed and replaced with Hanks balanced salt solution (HBSS, Gibco) containing 20 mM Hepes and 0.1% BSA. Electrical impedance was measured 2-5 minutes prior to compound addition. Compounds were added and measurements continued. […] In particular, 100 mV voltage was applied to the cells with a sweeping frequency range of 1 kHz to […]. Cell density-dependence responses to Urotensin II (500 nM) were analyzed to determine the optimum cell density for the CDS assay at 28° C.

[2] = tested on: panel of receptor/ion channels; test: binding to a panel of receptor/ion channels; details: data not shown
[3] = target: T2, endogeneous human U-II receptors (6D9 cells, sub-clone of RMS13) (Homo sapiens, UniProt Q9UKP6); test: CDS (CellKey) electrical impedance assay in 6D9 cells; assay type: cell-based; details: FIG. 3B
T2 construct: Cells of RMS13 and 6D9 have endogeneous human U-II receptors; host or cells: RMS13 (human) and 6D9, a sub-clone of RMS13
T2 sequence (Q9UKP6 1-389): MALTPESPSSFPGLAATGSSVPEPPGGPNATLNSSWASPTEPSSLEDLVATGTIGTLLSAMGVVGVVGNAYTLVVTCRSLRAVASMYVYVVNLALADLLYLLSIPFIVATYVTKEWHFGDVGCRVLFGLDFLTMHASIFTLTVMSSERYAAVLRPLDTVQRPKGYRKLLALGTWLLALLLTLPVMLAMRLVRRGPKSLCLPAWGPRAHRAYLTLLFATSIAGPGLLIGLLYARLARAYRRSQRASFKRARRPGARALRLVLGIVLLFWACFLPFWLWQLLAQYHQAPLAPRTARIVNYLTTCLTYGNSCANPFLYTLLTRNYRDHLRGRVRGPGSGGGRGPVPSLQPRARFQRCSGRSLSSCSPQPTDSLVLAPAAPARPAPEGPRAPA
Description: (§1) RMS13 was obtained from ATCC (ATCC NO: CRL-2061™, Manassas, Va.). […] The parent of the CHOrUII cells, CHO-K1 was obtained from ATCC (CAT# CRL-9618_CHOK1). The rat UT receptor was recombinantly cloned into CHO-K1 following standard molecular biology cloning techniques. The CHOrUII cells were under G418 selection. […] Angiotensin was purchased from Sigma. Urantide (PUT-3639-P1) was purchased from Peptide International (Louisville, Ky.).
(§2) Cells of RMS13 and 6D9 were cultured in RPMI medium (ATCC 30-2001) containing 10% FBS (Cat. No. SH30070.03, Hyclone, Logan, Utah). CHOrUII cells were grown in DMEMF12 (Gibco #11330-032) medium containing G418 at 1 mg/ml concentration. Cells were plated at 60 or 70K/well in a medium indicated above overnight. The medium was removed and replaced with Hanks balanced salt solution (HBSS, Gibco) containing 20 mM Hepes and 0.1% BSA. Electrical impedance was measured 2-5 minutes prior to compound addition. Compounds were added and measurements continued. The electrical impedance of the cells was measured using CellKey™ (MDS Sciex, Concord, Ontario) according to the protocol of the manufacturer, see for example Ciambrone et al. (2004, J Biomol Screen. 9(6): 467-80). […]
(§3) Cell density-dependence responses to Urotensin II (500 nM) were analyzed to determine the optimum cell density for the CDS assay at 28° C.

[4] = target: T3, endogeneous human U-II receptors (RMS13 cells) (Homo sapiens, UniProt Q9UKP6); test: CDS (CellKey) electrical impedance assay in RMS13 cells; assay type: cell-based; details: FIG. 3A
T3 construct: Cells of RMS13 and 6D9 have endogeneous human U-II receptors; host or cells: RMS13 (human) and 6D9, a sub-clone of RMS13
T3 sequence (Q9UKP6 1-389): T2 sequence (Q9UKP6 1-389)
Description: as §1, §2, §3

[5] = target: T4, UT receptor (Rattus norvegicus, UniProt P49684); details: competitive UT receptor antagonist, rat aorta (Patacchini, 2003); cited from earlier work
T4 construct: pure UT receptor antagonist in rat aorta vasoconstriction assays; host or cells: rat aorta tissue
T4 sequence (P49684 1-386): T1 sequence (P49684 1-386)

[6] = target: T5, human UT receptor (Homo sapiens, UniProt Q9UKP6); details: CHO cells over-expressing the human UT receptor (Camarda, 2004); cited from earlier work
T5 construct: host or cells: CHO cells over-expressing the human UT receptor
T5 sequence (Q9UKP6 1-389): T2 sequence (Q9UKP6 1-389)

[7] = target: human U-II receptor (endogeneous, on RMS13 and 6D9 cells) (human) (UniProt Q9UKP6); test: cell-based or functional assay

Compound	effect on U-II stimulated increase in electrical impedance [1]	binding activity to proteins within a panel of receptor/ion channels [2]	effect on U-II stimulated increase in electrical impedance [3]	effect on U-II stimulated increase in electrical impedance [4]	pA2 [5]	agonist activity [6]	EC50 of the dose dependent increase in electrical impedance of 6D9 cells (CDS, CellKey) [7] [pM]	EC50 of the dose dependent increase in electrical impedance of RMS13 cells (CDS, CellKey) [7] [pM]
CC(C)[C@H](NC(=O)[C@@H]1CSSC(C)(C)[C@H](NC(=O)[C@@H](N)CC(=O)O)C(=O)N[C@@H](Cc2ccccc2)C(=O)N[C@H](Cc2c[nH]c3ccccc23)C(=O)N[C@@H](CCCN)C(=O)N[C@@H](Cc2ccc(O)cc2)C(=O)N1)C(=O)O [Urantide] (H-D[Pen]F[dW][Orn]YCV-OH; disulfide 2-7)	blocked the U-II stimulated increase	minimal binding activity	blocked the U-II stimulated increase	blocked the U-II stimulated increase	8.3	potent U-II agonist		
Urotensin-II (peptide)							420	270
angiotensin	did not		did not	did not				
